SMILES strings stand for the structures.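 Five concentrations, 48 hours, 96-well plates. Abbreviation: GI50, concentration required for 50% inhibition of growth. TGI: total growth inhibition.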

Some test systems named below: M14 melanoma; UACC-257 melanoma; SK-MEL-28 melanoma; MOLT-4 leukemia; TK-10 renal; HOP-62 NSCLC; SF-295 CNS; HCC-2998 colon; MCF7 breast; A549 NSCLC.
Common to all, as to test: inhibition of tumour cell growth, NCI panel, 48 h

For the compound `NS(=O)(=O)c1ccc(N=Nc2c(O)[nH]c3ccc(-c4cnco4)cc23)cc1`, the GI50 in the assay on M14 melanoma was greater than 25000 nM; in the assay with UACC-257 melanoma it was greater than 25000 nM; in the assay with SK-MEL-28 melanoma, greater than 25 µM; with MOLT-4 leukemia, greater than 25000 nM; with TK-10 renal, greater than 25000 nM; in the assay with HOP-62 NSCLC, greater than 25000 nM. Also, the GI50 was greater than 25 µM in the assay with SF-295 CNS, greater than 25 µM with HCC-2998 colon, 11800 nM with MCF7 breast and greater than 25000 nM with A549 NSCLC. The TGI in the assay with M14 melanoma, in the assay with UACC-257 melanoma, with SK-MEL-28 melanoma, in the assay on MOLT-4 leukemia, with TK-10 renal and with HOP-62 NSCLC was greater than 25 µM each time. Besides, the TGI with SF-295 CNS, with HCC-2998 colon, in the assay with MCF7 breast and with A549 NSCLC was greater than 25 µM each time.

With `COc1cc2c3c(n(CCCNC(=O)OCC4c5ccccc5-c5ccccc54)c(=O)c2cc1OC)-c1cc2c(cc1/C3=C\CCNC(=O)OCC1c3ccccc3-c3ccccc31)OCO2`, the GI50 is greater than 25300 nM in the assay on M14 melanoma; greater than 50000 nM in the assay on UACC-257 melanoma; greater than 50 µM in the assay on SK-MEL-28 melanoma; 5450 nM in the assay with MOLT-4 leukemia; greater than 31700 nM with TK-10 renal; greater than 23.6 µM with SF-295 CNS. Further, the figures for the GI50 in the assay on HCC-2998 colon and in the assay on A549 NSCLC were greater than 50 µM and greater than 26600 nM, respectively. Further, the TGI in the assay with M14 melanoma was greater than 50 µM; with UACC-257 melanoma it was greater than 50 µM; in the assay with SK-MEL-28 melanoma, greater than 50 µM; with MOLT-4 leukemia, greater than 50 µM; in the assay with TK-10 renal it was greater than 50 µM; in the assay with HOP-62 NSCLC it was greater than 24.3 µM. In addition, the TGI in the assay on SF-295 CNS is greater than 50 µM; in the assay with HCC-2998 colon, greater than 50 µM; with MCF7 breast, greater than 18.5 µM; in the assay on A549 NSCLC it was greater than 50 µM.

Turning to `O=C(N/N=C/c1ccccc1)c1c(-c2cccnc2)cnc2ccccc12`, the TGI with M14 melanoma, in the assay on UACC-257 melanoma, with SK-MEL-28 melanoma, in the assay with MOLT-4 leukemia, in the assay with TK-10 renal and in the assay with HOP-62 NSCLC was greater than 100 µM in each case. Also, the TGI with SF-295 CNS, in the assay with HCC-2998 colon, in the assay on MCF7 breast and in the assay on A549 NSCLC was greater than 100 µM each time.

For the compound `Oc1cccnc1CN1CCCCC1`, the TGI with M14 melanoma, in the assay on UACC-257 melanoma, in the assay with SK-MEL-28 melanoma, with MOLT-4 leukemia, in the assay with TK-10 renal and in the assay with HOP-62 NSCLC was greater than 100 µM in each case. Also, the TGI in the assay with SF-295 CNS, in the assay on HCC-2998 colon, in the assay on MCF7 breast and in the assay with A549 NSCLC was greater than 100 µM each time.

As to `CCCCCCCC/C=C/CCCCCCCC(=O)OC[C@H]1O[C@@H](n2ccc(N)nc2=O)C(F)(F)[C@@H]1O`, the GI50 in the assay with M14 melanoma is less than 11.5 nM; with UACC-257 melanoma it was 39 nM; in the assay with SK-MEL-28 melanoma it was greater than 51.1 µM; in the assay on MOLT-4 leukemia, 35.2 nM; in the assay on TK-10 renal, 2380 nM; with HOP-62 NSCLC, less than 20.9 nM. Also, the GI50 with SF-295 CNS is 0.0242 µM; in the assay on HCC-2998 colon, 17.5 µM; with MCF7 breast, less than 10 nM; with A549 NSCLC, less than 17.4 nM. Further, the TGI was 0.0273 µM with M14 melanoma; greater than 100 µM in the assay on UACC-257 melanoma; greater than 100 µM with SK-MEL-28 melanoma; 5.02 µM with MOLT-4 leukemia; greater than 100 µM in the assay with TK-10 renal; 0.555 µM in the assay with SF-295 CNS. In addition, the TGI is greater than 100 µM with HCC-2998 colon, greater than 100 µM in the assay with MCF7 breast and greater than 70.1 µM in the assay on A549 NSCLC.

In the case of `O=C(NC1=CC(=O)c2ccccc2C1=O)c1ccccc1`, the GI50 in the assay with M14 melanoma was 874 nM; with UACC-257 melanoma it was 1220 nM; in the assay with SK-MEL-28 melanoma, 0.841 µM; in the assay with MOLT-4 leukemia, 2040 nM; in the assay with TK-10 renal, 2710 nM; in the assay on HOP-62 NSCLC, 2760 nM. Further, the GI50 is 2 µM in the assay with SF-295 CNS, 1.27 µM in the assay with HCC-2998 colon, 1050 nM with MCF7 breast and 2910 nM in the assay on A549 NSCLC. Also, the TGI is 4.4 µM in the assay with M14 melanoma; 2.57 µM with UACC-257 melanoma; 15.3 µM in the assay with SK-MEL-28 melanoma; 6.22 µM in the assay on MOLT-4 leukemia; 5.38 µM in the assay with TK-10 renal; 16 µM with HOP-62 NSCLC. Moreover, the TGI was determined as 7.73 µM in the assay with SF-295 CNS, 14.3 µM with HCC-2998 colon, 2.76 µM in the assay on MCF7 breast and 16.4 µM with A549 NSCLC.

In the case of `C=C1C(=O)O[C@H]2[C@H]1CC/C(COC(=O)C(=O)c1cn(Cc3ccccc3)c3ccccc13)=C\CC[C@@]1(C)O[C@@H]21`, the GI50 is 1780 nM with M14 melanoma; 2160 nM in the assay on UACC-257 melanoma; 2.08 µM with SK-MEL-28 melanoma; 2350 nM with MOLT-4 leukemia; 2330 nM with TK-10 renal; 2030 nM with HOP-62 NSCLC. Besides, the GI50 in the assay with SF-295 CNS was 10.5 µM; in the assay with HCC-2998 colon, 1.91 µM; in the assay with MCF7 breast, 1190 nM; with A549 NSCLC it was 2130 nM. The TGI is 4.13 µM in the assay on M14 melanoma; 5.21 µM in the assay with UACC-257 melanoma; 4.98 µM in the assay on SK-MEL-28 melanoma; 6.83 µM in the assay with MOLT-4 leukemia; 5.47 µM in the assay on TK-10 renal; 5.51 µM in the assay on HOP-62 NSCLC. For the same compound, the TGI with SF-295 CNS came out at 25.6 µM; with HCC-2998 colon, 4.26 µM; with MCF7 breast, 3.06 µM; in the assay on A549 NSCLC it was 6.35 µM.

As for `CN1C(=O)c2cccc3cc([N+](=O)[O-])cc(c23)C1=O`, the TGI in the assay on M14 melanoma, in the assay with UACC-257 melanoma, in the assay with SK-MEL-28 melanoma, in the assay on MOLT-4 leukemia, in the assay on TK-10 renal and in the assay on HOP-62 NSCLC was greater than 10 µM in each case. Further, the TGI in the assay on SF-295 CNS, in the assay with HCC-2998 colon, in the assay with MCF7 breast and in the assay on A549 NSCLC was greater than 10 µM throughout.

As for `CC(C)(C)c1cc(C(C)(C)C)cc(S(=O)(=O)Nc2cc3ccccc3cc2C(=O)NCCN)c1`, the GI50 is 1710 nM in the assay on M14 melanoma; 2090 nM in the assay on UACC-257 melanoma; 1.87 µM in the assay with SK-MEL-28 melanoma; 2320 nM with MOLT-4 leukemia; 1780 nM in the assay with TK-10 renal; 1570 nM in the assay with HOP-62 NSCLC. In addition, the GI50 in the assay on SF-295 CNS is 1.72 µM; with HCC-2998 colon, 1.75 µM; in the assay on MCF7 breast it was 1530 nM; with A549 NSCLC, 1950 nM. The TGI came to 3.42 µM in the assay with M14 melanoma; 4.02 µM with UACC-257 melanoma; 3.64 µM with SK-MEL-28 melanoma; 5.77 µM in the assay on MOLT-4 leukemia; 3.26 µM in the assay with TK-10 renal; 3.01 µM with HOP-62 NSCLC. For the same compound, the TGI came out at 3.17 µM with SF-295 CNS, 3.24 µM in the assay on HCC-2998 colon, 2.95 µM in the assay with MCF7 breast and 3.77 µM in the assay with A549 NSCLC.

For the compound `COc1cc2ncnc(Nc3ccc(C)c(O)c3)c2cc1OC`, the GI50 with M14 melanoma is 18800 nM; with UACC-257 melanoma it was greater than 25000 nM; with SK-MEL-28 melanoma it was greater than 25 µM; with MOLT-4 leukemia, greater than 25000 nM; in the assay with TK-10 renal it was 3620 nM; with HOP-62 NSCLC, greater than 25000 nM. The GI50 in the assay with SF-295 CNS was greater than 25 µM; in the assay with HCC-2998 colon, greater than 25 µM; in the assay on MCF7 breast, greater than 25000 nM; in the assay on A549 NSCLC, 18100 nM. Also, the TGI with M14 melanoma was greater than 25 µM; in the assay with UACC-257 melanoma it was greater than 25 µM; in the assay with SK-MEL-28 melanoma, greater than 25 µM; in the assay with MOLT-4 leukemia, greater than 25 µM; with TK-10 renal it was 12 µM; in the assay with HOP-62 NSCLC it was greater than 25 µM. Further, the TGI in the assay with SF-295 CNS, in the assay with HCC-2998 colon, in the assay with MCF7 breast and with A549 NSCLC was greater than 25 µM each time.

Consider `CCCCC(O)(c1ccc(Cl)cc1)C(CN1CCOCC1)c1ccc(Cl)cc1` (configuration not stated), for which the GI50 is 13800 nM in the assay with M14 melanoma; 14300 nM in the assay on UACC-257 melanoma; 15.9 µM with SK-MEL-28 melanoma; 10700 nM with MOLT-4 leukemia; 16600 nM with TK-10 renal; 16300 nM with HOP-62 NSCLC. For the same compound, the GI50 in the assay on SF-295 CNS is 14.4 µM; in the assay with HCC-2998 colon, 12.3 µM; in the assay with MCF7 breast, 10600 nM; in the assay with A549 NSCLC, 12500 nM. Further, the TGI worked out at 33.4 µM with M14 melanoma; 35 µM with UACC-257 melanoma; 33.9 µM in the assay with SK-MEL-28 melanoma; 30.7 µM in the assay with MOLT-4 leukemia; 31.2 µM in the assay on TK-10 renal; 34.5 µM in the assay with HOP-62 NSCLC. Moreover, the TGI with SF-295 CNS is 30.7 µM; in the assay with HCC-2998 colon it was 26.8 µM; with MCF7 breast, 24.5 µM; in the assay with A549 NSCLC, 30.9 µM.

Take `O=C(O)C1OC(n2cc(F)c(=O)[nH]c2=O)CC1O` (configuration not stated): the TGI in the assay on M14 melanoma is greater than 100 µM; in the assay with UACC-257 melanoma, greater than 100 µM; in the assay on SK-MEL-28 melanoma it was greater than 63.1 µM; with MOLT-4 leukemia, greater than 56.2 µM; with TK-10 renal, greater than 100 µM; in the assay with HOP-62 NSCLC it was greater than 89.2 µM. Moreover, the TGI is greater than 100 µM in the assay on SF-295 CNS, greater than 77.4 µM in the assay on HCC-2998 colon, greater than 100 µM with MCF7 breast and greater than 100 µM in the assay with A549 NSCLC.
